In patent US12168012B2, “NLRP3 inflammasome inhibitors” (Novartis AG, priority 2018, dated 2024):
Counter-ions that a name gives are not always drawn.

Assays:
NLRP3 inflammasome = experiment: IL-1β secretion assay; type: cell-based; details: Homo sapiens, THP-1, 3 h, PMA-differentiated THP-1 cells, 15 μM nigericin, HTRF
Summary of the method: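 PMA-differentiated THP-1 cells stimulated with nigericin to trigger NLRP3-dependent IL-1β secretion, measured by HTRF after 3 h. Viability/pyroptosis monitored with PrestoBlue. IC50 from logistic fit of % inhibition vs concentration with Hill coefficient.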

[1] = test system: NF-kB-dependent TNF-α secretion; experiment: TNF-α secretion assay (counterscreen); type: cell-based; details: Homo sapiens; THP-1 cells, Pam3CSK4-stimulated, 3 hours, HTRF
Method: Monocytic THP-1 cells were maintained according to providers' instructions in RPMI media as described above. Undifferentiated cells were plated at 50,000 cells per well in a 384-well flat-bottom cell culture plates (Greiner, #781986), and allowed to rest overnight. Experimental compounds were prepared and added as described above. TNF-α secretion was triggered by the addition of either 1 μg/mL LPS (Sigma, #L4391) or 100 ng/mL Pam3CSK4 (Invivogen, #tlrl-pms) depending on the experiment, and cells were incubated for 3 hours. 10 μL supernatant was removed, and TNF-α levels were monitored using an HTRF assay (CisBio, #62TNFPEC) according to manufacturers' instructions. Viability was monitored as described above.
IC50 values were calculated from the plot of percentage of inhibition versus the inhibitor concentration by a logistics fit according to: y=A2+(A1−A2)/(1+(x/IC50)^p) where y is the %-inhibition at the inhibitor concentration, x. A1 is the lowest inhibition value, i.e. 0%, and A2 the maximum inhibition value, i.e. 100%. The exponent, p, is the Hill coefficient. The curve fitting was conducted with an internally developed software suite. […]

Structure (SMILES)	IC50 (NLRP3 inflammasome) [nM]	IC50 [1] [µM]
CN1CCC[C@@H](NC(=O)Cn2nc(C3CC3)n3c(cc4sc(F)cc43)c2=O)C1 [Ex 35, (R)-2-(5-Cyclopropyl-2-fluoro-8-oxothieno[2′,3′:4,5]pyrrolo[1,2-d][1,2,4]triazin-7(8H)-yl)-N-(1-methylpiperidin-3-yl)acetamide]	48.1	40
CC(C)c1nn(CC(=O)N[C@@H]2CCC(=O)NC2)c(=O)c2cc3sc(F)cc3n12 [Ex 33, (R)-2-(2-Fluoro-5-isopropyl-8-oxothieno[2′,3′:4,5]pyrrolo[1,2-d][1,2,4]triazin-7(8H)-yl)-N-(6-oxopiperidin-3-yl)acetamide]	108	> 100
CC(C)c1nn(CC(=O)NCC(C)(C)CO)c(=O)c2cc3sc(Cl)cc3n12 [Ex 20, 2-(2-Chloro-5-isopropyl-8-oxothieno[2′,3′:4,5]pyrrolo[1,2-d][1,2,4]triazin-7(8H)-yl)-N-(3-hydroxy-2,2-dimethylpropyl)acetamide]	59.8	> 100
CC(C)c1nn(CC(=O)N[C@@H]2CCC[C@@H](O)C2)c(=O)c2cc3scnc3n12 [Ex 47, N-((1R,3R)-3-Hydroxycyclohexyl)-2-(5-isopropyl-8-oxothiazolo[5′,4′:4,5]pyrrolo[1,2-d][1,2,4]triazin-7(8H)-yl)acetamide]	9.1	> 100
CC(C)c1nn(CC(=O)N[C@@H]2CCCN(C3CC3)C2)c(=O)c2cc3sc(Cl)cc3n12 [Ex 124, (R)-2-(2-Chloro-5-isopropyl-8-oxothieno[2′,3′:4,5]pyrrolo[1,2-d][1,2,4]triazin-7(8H)-yl)-N-(1-cyclopropylpiperidin-3-yl)acetamide]	0.9	> 100
CC(O)c1nn(CC(=O)N[C@@H]2CCCNC2)c(=O)c2cc3sc(Cl)cc3n12 (stereo partly drawn) [Ex 43, 2-(2-Chloro-5-(1-hydroxyethyl)-8-oxothieno[2′,3′:4,5]pyrrolo[1,2-d][1,2,4]triazin-7(8H)-yl)-N-((R)-piperidin-3-yl)acetamide hydrochloride]	2050	> 100
CC(O)c1nn(CC(=O)N[C@@H]2CCC[C@@](C)(O)C2)c(=O)c2cc3sc(Cl)cc3n12 (stereo partly drawn) [Ex 45, 2-(2-Chloro-5-(1-hydroxyethyl)-8-oxothieno[2′,3′:4,5]pyrrolo[1,2-d][1,2,4]triazin-7(8H)-yl)-N-((1R,3R)-3-hydroxy-3-methylcyclohexyl)acetamide]	244	> 100
CC1(C)CC(NC(=O)Cn2nc(C(C)(C)O)n3c(cc4sc(Cl)cc43)c2=O)C1 [Ex 25, 2-(2-Chloro-5-(2-hydroxypropan-2-yl)-8-oxothieno[2′,3′:4,5]pyrrolo[1,2-d][1,2,4]triazin-7(8H)-yl)-N-(3,3-dimethylcyclobutyl)acetamide]	78.5	> 100
Cc1nc2c(cc3c(=O)n(CC(=O)NC4CC4)nc(C(C)C)n32)s1 [Ex 96, N-Cyclopropyl-2-(5-isopropyl-2-methyl-8-oxothiazolo[5′,4′:4,5]pyrrolo[1,2-d][1,2,4]triazin-7(8H)-yl)acetamide]	1040	> 33
CC(O)c1nn(CC(=O)N[C@@H]2CCCN(C)C2)c(=O)c2cc3sc(Cl)cc3n12 (stereo partly drawn) [Ex 44, 2-(2-Chloro-5-(1-hydroxyethyl)-8-oxothieno[2′,3′:4,5]pyrrolo[1,2-d][1,2,4]triazin-7(8H)-yl)-N-((R)-1-methylpiperidin-3-yl)acetamide]	112	> 100
CC(C)c1nn(CC(=O)N[C@@H]2CCCN(CC3(O)CCC3)C2)c(=O)c2cc3sc(Cl)cc3n12 [Ex 131, (R)-2-(2-Chloro-5-isopropyl-8-oxothieno[2′,3′:4,5]pyrrolo[1,2-d][1,2,4]triazin-7(8H)-yl)-N-(1-((1-hydroxycyclobutyl)methyl)piperidin-3-yl)acetamide]	17.9	> 33
Cc1cc2c(cc3c(=O)n(CC(=O)NC4CC4)nc(C(C)C)n32)s1 [Ex 41, N-Cyclopropyl-2-(5-isopropyl-2-methyl-8-oxothieno[2′,3′:4,5]pyrrolo[1,2-d][1,2,4]triazin-7(8H)-yl)acetamide]	1170	> 100
CC(C)c1nn(CC(=O)N[C@@H]2CCCN(C)C2)c(=O)c2cc3sc(F)cc3n12 [Ex 32, (R)-2-(2-Fluoro-5-isopropyl-8-oxothieno[2′,3′:4,5]pyrrolo[1,2-d][1,2,4]triazin-7(8H)-yl)-N-(1-methylpiperidin-3-yl)acetamide]	7.6	> 100
CC(C)c1nn(CC(=O)NCCC(C)(C)O)c(=O)c2cc3sc(Cl)cc3n12 [Ex 77, 2-(2-Chloro-5-isopropyl-8-oxothieno[2′,3′:4,5]pyrrolo[1,2-d][1,2,4]triazin-7(8H)-yl)-N-(3-hydroxy-3-methylbutyl)acetamide]	14	> 100
CC(C)c1nn(CC(=O)NC2CC2)c(=O)c2cc3scnc3n12 [Ex 51, N-Cyclopropyl-2-(5-isopropyl-8-oxothiazolo[5′,4′:4,5]pyrrolo[1,2-d][1,2,4]triazin-7(8H)-yl)acetamide]	138	> 100
Cc1cc2c(cc3c(=O)n(CC(=O)N[C@@H]4CCC(=O)NC4)nc(C(C)C)n32)s1 [Ex 39, (R)-2-(5-Isopropyl-2-methyl-8-oxothieno[2′,3′:4,5]pyrrolo[1,2-d][1,2,4]triazin-7(8H)-yl)-N-(6-oxopiperidin-3-yl)acetamide]	540	> 100
CC(C)c1nn(CC(=O)N[C@@H]2CCCN(C[C@H](C)O)C2)c(=O)c2cc3sc(Cl)cc3n12 [Ex 129, 2-(2-Chloro-5-isopropyl-8-oxothieno[2′,3′:4,5]pyrrolo[1,2-d][1,2,4]triazin-7(8H)-yl)-N-((R)-1-((S)-2-hydroxypropyl)piperidin-3-yl)acetamide]	3.1	> 100
CC(O)c1nn(CC(=O)Nc2cccnc2)c(=O)c2cc3sc(Cl)cc3n12 (stereo not drawn) [Ex 42, 2-(2-Chloro-5-(1-hydroxyethyl)-8-oxothieno[2′,3′:4,5]pyrrolo[1,2-d][1,2,4]triazin-7(8H)-yl)-N-(pyridin-3-yl)acetamide]	1100	> 100
CC(C)c1nn(CC(=O)N[C@@H]2CCC(=O)NC2)c(=O)c2cc3sc(Cl)cc3n12 [Ex 19, (R)-2-(2-Chloro-5-isopropyl-8-oxothieno[2′,3′:4,5]pyrrolo[1,2-d][1,2,4]triazin-7(8H)-yl)-N-(6-oxopiperidin-3-yl)acetamide]	48.6	> 100
CC(C)c1nn(CC(=O)Nc2ccc(F)cc2F)c(=O)c2cc3sc(Cl)cc3n12 [Ex 58, 2-(2-Chloro-5-isopropyl-8-oxothieno[2′,3′:4,5]pyrrolo[1,2-d][1,2,4]triazin-7(8H)-yl)-N-(2,4-difluorophenyl)acetamide]	176	> 100
CC(C)c1nn(CC(=O)Nc2ccncn2)c(=O)c2cc3sc(Cl)cc3n12 [Ex 1, 2-(2-Chloro-5-isopropyl-8-oxothieno[2′,3′:4,5]pyrrolo[1,2-d][1,2,4]triazin-7(8H)-yl)-N-(pyrimidin-4-yl)acetamide]	20.2	> 100
CC(C)(O)c1nn(CC(=O)N[C@@H]2CCCN(CCF)C2)c(=O)c2cc3sc(Cl)cc3n12 [Ex 30, (R)-2-(2-Chloro-5-(2-hydroxypropan-2-yl)-8-oxothieno[2′,3′:4,5]pyrrolo[1,2-d][1,2,4]triazin-7(8H)-yl)-N-(1-(2-fluoroethyl)piperidin-3-yl)acetamide]	52.5	> 100
CC(C)c1nn(CC(=O)NC23CCC(O)(CC2)CC3)c(=O)c2cc3sc(Cl)cc3n12 [Ex 76, 2-(2-Chloro-5-isopropyl-8-oxothieno[2′,3′:4,5]pyrrolo[1,2-d][1,2,4]triazin-7(8H)-yl)-N-(4-hydroxybicyclo[2.2.2]octan-1-yl)acetamide]	45.1	> 100
Cc1cc2c(cc3c(=O)n(CC(=O)N[C@@H]4CCCNC4)nc(C(C)C)n32)s1 [Ex 38, (R)-2-(5-Isopropyl-2-methyl-8-oxothieno[2′,3′:4,5]pyrrolo[1,2-d][1,2,4]triazin-7(8H)-yl)-N-(piperidin-3-yl)acetamide]	88	> 100
CC(C)c1nn(CC(=O)N[C@@H]2CCCNC2)c(=O)c2cc3sc(F)cc3n12 [Ex 31, (R)-2-(2-Fluoro-5-isopropyl-8-oxothieno[2′,3′:4,5]pyrrolo[1,2-d][1,2,4]triazin-7(8H)-yl)-N-(piperidin-3-yl)acetamide hydrochloride]	90.5	> 100
CC(C)c1nn(CC(=O)N[C@@H]2CCCOC2)c(=O)c2cc3sc(Cl)cc3n12 [Ex 59, (R)-2-(2-Chloro-5-isopropyl-8-oxothieno[2′,3′:4,5]pyrrolo[1,2-d][1,2,4]triazin-7(8H)-yl)-N-(tetrahydro-2H-pyran-3-yl)acetamide]	201	> 100
CC(C)c1nn(CC(=O)N[C@@H]2CCCNC2)c(=O)c2cc3scnc3n12 [Ex 88, (R)-2-(5-Isopropyl-8-oxothiazolo[5′,4′:4,5]pyrrolo[1,2-d][1,2,4]triazin-7(8H)-yl)-N-(piperidin-3-yl)acetamide]	27.5	> 100
